Test results taken from patent US8003327B2, “Methods of screening for risk of proliferative disease and methods for the treatment of proliferative disease” (Duke University, priority 1998, dated 2011).
Values after ≈ are worked out from the molar mass of the structure shown.

How the values were obtained:
[1] = test system: NT2 cells; assay: Dose response of NT2 cell viability to drugs, trypan blue method; format: cell-based; settings: for IC50: Homo sapiens, 18 hours, trypan blue, read-out: dose resulting in 50% killing at 18 hours
Procedure: Drug treatments: Dose response curves were established for etoposide, vincristine and staurosporine in NT2 cells (FIGS. 3Ai, 3Bi and 3Ci). […] Survival represents the number of drug treated viable cells divided by the number of untreated viable cells and expressed as a percentage. Protection is calculated as the difference in survival between CLN3-overexpressing cells and the vector-transfected control cells. The degree of protection is calculated as the difference in survival between treated CLN3-overexpressing and vector control cells divided by the survival of treated vector control cells. The values are from three separate experiments, each of which was carried out in triplicate (FIGS. 3Aii, 3Bii, and 3Cii).

[2] = test system: NT2 cells; assay: DNA fragmentation (low molecular weight DNA ladder) in NT2 cells; format: cell-based
Procedure: FIG. 4. […] NT2 cells were transiently transfected with CLN3 (lanes 1, 3 and 5) or vector alone (lanes 2, 4 and 6) followed by treatment with either 10 μg/ml etoposide (lanes 1 and 2) or 500 nM staurosporine (lanes 3 and 4) or 1 μg/ml vincristine (lanes 5 and 6). Low molecular weight DNA was extracted and analyzed on a 2% agarose gel in Tris-Borate-EDTA buffer (Rosenbaum et al, Ann. Neurol. 36, 864-870 (1994)).
A hallmark of apoptosis is the fragmentation of nuclear DNA into nucleosome-sized fragments creating a DNA ladder of 180 bp and its concatamers (Arends M J, et al., Am. J. Pathol. 136: 593-608 (1990)). […] NT2 cells were transiently transfected with CLN3 or vector alone, then treated with the drugs prior to the extraction of low molecular weight DNA (Rosenbaum D M, et al., Ann. Neurol. 36: 864-870 (1994)).

Compound | apoptosis induction in NT2 cells ([1]; increasing concentrations, counted at 6, 12, 18 and 24 hour) | DNA fragmentation in NT2 cells caused by drug [2] | IC50 ([1]; NT2 cells) | optimal concentration for causing apoptosis in NT2 cells ([1]; NT2 cells, dose response curves)
CCCCCCCCCCCCC/C=C/[C@@H](O)[C@H](CO)NC(C)=O [C2-ceramide] | effective apoptotic agent |  |  | 
CC[C@]1(O)C[C@H]2CN(CCc3c([nH]c4ccccc34)[C@@](C(=O)OC)(c3cc4c(cc3OC)N(C=O)[C@H]3[C@@](O)(C(=O)OC)[C@H](OC(C)=O)[C@]5(CC)C=CCN6CC[C@]43[C@@H]65)C2)C1 [vincristine] |  | cause DNA fragmentation | 1 µg/mL (≈ 1.21 µM) | 
CN[C@@H]1C[C@H]2O[C@@](C)([C@@H]1OC)n1c3ccccc3c3c4c(c5c6ccccc6n2c5c31)C(=O)NC4 [staurosporine] |  | cause DNA fragmentation |  | 500 nM
COc1cc([C@@H]2c3cc4c(cc3[C@@H](O[C@@H]3O[C@@H]5CO[C@@H](C)O[C@H]5[C@H](O)[C@H]3O)[C@H]3COC(=O)[C@H]23)OCO4)cc(OC)c1O [etoposide] |  | cause DNA fragmentation | 10 µg/mL (≈ 17 µM) | 
